In patent publication US5972351A, “Plasmodium falciparum MHC class I-restricted CTL epitopes derived from pre-erythrocytic stage antigens” (Isis Innovation Limited, priority 1992, dated 1999):

Key:
B53 matched target cells = assay: CTL assay with HIV-2 gag restimulated CTL; assay type: cell-based, human; conditions: CTL from one HLA-B53 positive HIV-2 infected Gambian
HLA-B53 = biological target: T1, HLA-B53 (Homo sapiens, UniProt P01889, A329T/A93T/A95T/C349S/D201E/D98Y/E176V/E187L/E204Q/E69T/G107R/I218V/K202T/L105A/L119I/N104I/Q94N/R106L/R155S/R180L/S101N/S121R/S35A/S48A/T118I/V127L/V306I/V36M/Y140S/Y91F); assay: HLA assembly assay (peptide binding to HLA-B53); conditions: lysates of T2-B53 cells; all peptides initially tested at 4 μM
T1 construct: by transfection with a genomic clone of HLA-B53 using hygromycin selection; expressed in transfected cells; host or cells: T2-B53 (T2 cells transfected with a genomic clone of HLA-B53); lysates of 35S-methionine-labelled cells
Procedure: Briefly, the mutant cell line T2-B53 was derived from T2 cells of HLA type, HLA-A2, -B51, by transfection with a genomic clone of HLA-B53 using hygromycin selection. […] Peptide concentrations were determined with a Micro BCA colourimetric assay (Pierce). Peptides were added to lysates of ^35 S-methionine-labelled cells and incubated overnight at 4° C.^36. Stable assembled class I molecules were then precipitated with monoclonal antibodies W6/32^34 (reactive with all assembled class I molecules) or MHM5^41 (reactive with assembled HLA-B but not HLA-A molecules).

ALSEGCTPYDINQMLNNCVGD [P1]
recognition of peptide-pulsed targets by HIV 2-gag restimulated CTL (B53 matched target cells): recognised
binding to HLA-B53 in the HLA assembly assay (HLA-B53): positive result
